Patent US20130156869A1, “PHARMACEUTICAL COMPOSITION FOR THE TREATMENT OF ALZHEIMER'S DISEASE, METHOD FOR PRODUCING SAME AND USE THEREOF” (Funddacao Arnaldo Vieira de Carvalho, priority 2010, published 2013)

System: patients diagnosed with Alzheimer's disease
Assay: Mini Mental State Examination (MMSE) performed quarterly in a blinded, placebo-controlled study of lithium microdoses
Format: in vivo, human
Excerpt: Patients clinically diagnosed with Alzheimer's disease by the DSM-IV and NINCDS-ADRDA criteria, and under treatment. The patients were selected by the Mini Mental State Examination (MMSE), which is a questionnaire asked to the patient at each visit, which has a maximum score of 30 points. The Mini-Mental State Examination (MMSE) was designed to be a clinical practice assessment of change in the cognitive status in geriatric patients (Folstein et al, 1975). It examines temporal and spatial orientation, short-term memory (or immediate attention) and recall, calculation, apraxia, and language and visual-spatial skills. It can be used as a screening test for cognitive impairment or as a cognitive assessment of bedside. The Portuguese version of the MMSE (Bertolucci et al, 1994) was considered reliable and adequate for screening and monitoring of ambulatory elderly (Lawrence et al, 2008).
The MMSE includes 11 items, divided into 2 sections. The first requires verbal answers to questions of orientation, memory and attention, the second to questions of reading and writing skills, and it evaluates the skills of appointment, follow verbal and written commands, writing a sentence and copying a drawing (polygons) (Folstein et al, 1975). The cutoff point most often used to indicate a cognitive impairment that deserves further investigation is 24. […] The cutoff point is often adjusted for the education level because a single cut can lose cases among persons with more education, and generate false positives among those with less education. […] Some Brazilian authors studied the measuring characteristics of the scale. Thus, to evaluate the cognitive performance of a population seeking medical screening service of a hospital, Bertolucci applied the MMSE in 530 individuals. We found distinct cutoff points for the diagnosis of cognitive decline, according to the level of education: 13 for illiterates, 18 for low and middle levels of education and 26 for high level of education, with a sensitivity of 82.4%, 75.6% and 80%, and specificity of 97.5%, 96.6% and 95.6%, respectively (Bertolucci et al, 1994). The MMSE was the parameter chosen for inclusion and monitoring of patients of the search for being a test performed on all patients in this clinic and for being a cognitive assessment scale that is practical and useful in the investigation of patients with dementia risk, as in the case of elderly (Almeida, 1998), and it is prescriptive by use and the criteria for dispensing medications adopted by the Ministry of Health. The fact that all medical professionals involved in the evaluation of patients are fully trained and qualified in applying the MMSE was also relevant for this choice. The inclusion of a second test could generate a methodological error that is not measurable. The patients were diagnosed by a neurologist, psychiatrist or geriatrician as suffering from dementia due to Alzheimer's disease, according to the criteria previously mentioned. Patients must present MMSE score equal to or greater than 12 for patients over 4 years of education and greater than or equal to 9 for patients with up to 4 years of education. (Almeida, 1998).
In this preferred embodiment of the invention, the drug tested was the lithium gluconate in a dose of 8.140 mg in 2 mL of solution, which corresponds to 0.28 mg or 0.04 mMol of the metal administered sublingually. Two presentations were used: one containing the lithium gluconate and other containing placebo (anhydrous glucose and purified water). Both presentations were differentiated by a label existing in a group, placebo or lithium, unknown by researchers and by the executors of the MMSE. The patients were selected in a blinded fashion in both groups, with and without stamp by attendance order, being the first with the seal, alternating until the last patient. Formulations were also evaluated with lithium carbonate, respecting the dose of 0.28 mg of metal per dose. […]

O=C([O-])[C@H](O)[C@@H](O)[C@H](O)[C@H](O)CO.[Li+] [Lithium, lithium gluconate]
MMSE scores vs control by age group (61-70 years, F1,62=8.487, p=0.0053, Bonferroni test not significant): significant differences in the treatment factor
MMSE scores vs control by age group (71-80 years, treatment factor F1,302=29.6, p<0.0001): stable maintenance of these values
MMSE scores vs control by age group (>80 years, treatment factor F1,225=19.53, p<0.0001): better scores on the MMSE compared to control subjects
Evolution of MMSE scores in quarterly reviews (all participants, six quarters, treatment factor F1,614=65.81, p<0.0001 vs control): maintenance of these scores
MMSE score (first quarter of treatment, 0.28 mg lithium metal per dose, sublingual, P<0.01 vs control): 20.57±0.66
MMSE score (quarter 0, immediately before inclusion in the protocol (baseline), n=56, P=0.17 vs control): 19±0.63
MMSE score (quarter 5 (end of study), 0.28 mg lithium metal per dose, sublingual, P<0.001 vs control): 20±0.9
Influence of gender on MMSE scores in the treated group (treated men vs treated women, p=0.4448 and p=0.9786): no significant differences in treatment and time factors
